Measured values as given in ChEMBL document CHEMBL5385881, “Design, synthesis, and discovery of Eudistomin Y derivatives as lysosome-targeted antiproliferation agents” (Eur J Med Chem, 2023).
The source made the active and inactive calls. The rule behind the calls is not given here.

Columns and labels:
[1] = tested on: MDA-MB-231; test: Induction of cell cycle arrest in human MDA-MB-231 cells assessed as accumulation of cells at G0/G1 phase at 10 uM incubated for 24 hrs by PI staining based flow cytometric analysis (reference value: 62.73%); format: functional
[2] = tested on: MDA-MB-231; test: Induction of autophagy in human MDA-MB-231 cells assessed as fold increase in Lamp1 level at 10 uM measured after 6 hrs by Western blot analysis relative to control; format: functional
[3] = tested on: SGC-7901; test: Induction of cell cycle arrest in human SGC-7901 cells assessed as accumulation of cells at G0/G1 phase at 20 uM incubated for 24 hrs by PI staining based flow cytometric analysis (reference value: 59.67%); format: functional
[4] = tested on: A549; test: Cytotoxicity against human A549 cells assessed as cell inhibition measured after 72 hrs by MTT assay; format: functional, cell-based; conditions: A549, 72 h
[5] = tested on: SGC-7901; test: Induction of cell cycle arrest in human SGC-7901 cells assessed as accumulation of cells at S phase at 50 uM incubated for 24 hrs by PI staining based flow cytometric analysis (reference value: 40.15%); format: functional
[6] = tested on: MDA-MB-231; test: Induction of autophagy in human MDA-MB-231 cells assessed as fold increase in LC3I/II protein level at 5 uM measured after 6 hrs by Western blot analysis relative to control; format: functional
[7] = tested on: MDA-MB-231; test: Induction of cell cycle arrest in human MDA-MB-231 cells assessed as accumulation of cells at G2/M phase at 20 uM incubated for 24 hrs by PI staining based flow cytometric analysis (reference value: 7.47%); format: functional
[8] = Reduction in Cyclin B1 level in human MDA-MB-231 cells assessed as fold change at 15 uM measured after 72 hrs by Western blot analysis relative to control; format: functional
[9] = tested on: LS180; test: Cytotoxicity against human LS180 cells assessed as cell inhibition measured after 72 hrs by MTT assay; format: functional, cell-based; conditions: LS180, 72 h
[10] = tested on: MDA-MB-231; test: Induction of autophagy in human MDA-MB-231 cells assessed as increase in acidic vesicle formation by measuring fluorescence signal from lyso-red Tracker at 10 to 20 uM measured after 24 hrs by Lyso-RedTracker staining based confocal laser-scanning microscopic analysis; format: functional, cell-based; conditions: dose 10-20 µM
[11] = tested on: MDA-MB-231; test: Cytotoxicity against human MDA-MB-231 cells assessed as cell inhibition measured after 72 hrs by MTT assay; format: functional, cell-based; conditions: MDA-MB-231, 72 h
[12] = tested on: SGC-7901; test: Cytotoxicity against human SGC-7901 cells assessed as cell inhibition measured after 72 hrs by MTT assay; format: functional, cell-based; conditions: SGC-7901, 72 h
[13] = Reduction in Cyclin B1 level in human MDA-MB-231 cells assessed as fold change in presence of 3-MA at 15 uM measured after 72 hrs by Western blot analysis relative to control; format: functional
[14] = tested on: SGC-7901; test: Induction of cell cycle arrest in human SGC-7901 cells assessed as accumulation of cells at S phase at 10 uM incubated for 24 hrs by PI staining based flow cytometric analysis (reference value: 40.15%); format: functional
[15] = tested on: MDA-MB-231; test: Induction of cell cycle arrest in human MDA-MB-231 cells assessed as accumulation of cells at G0/G1 phase at 20 uM incubated for 24 hrs by PI staining based flow cytometric analysis (reference value: 62.73%); format: functional
[16] = Reduction in Cyclin B1 level in human MDA-MB-231 cells assessed as fold change at 5 uM measured after 72 hrs by Western blot analysis relative to control; format: functional
[17] = tested on: MDA-MB-231; test: Antiproliferative activity against human MDA-MB-231 cells assessed as cell viability in presence of 3-MA at 10 to 50 uM measured after 72 hrs by MTT assay; format: functional, cell-based; conditions: dose 10-50 µM
[18] = tested on: SGC-7901; test: Induction of cell cycle arrest in human SGC-7901 cells assessed as accumulation of cells at G2/M phase at 10 uM incubated for 24 hrs by PI staining based flow cytometric analysis (reference value: 0.18%); format: functional
[19] = tested on: MDA-MB-231; test: Induction of cell cycle arrest in human MDA-MB-231 cells assessed as accumulation of cells at G2/M phase at 5 uM incubated for 24 hrs by PI staining based flow cytometric analysis (reference value: 7.47%); format: functional
[20] = tested on: SGC-7901; test: Induction of cell cycle arrest in human SGC-7901 cells assessed as accumulation of cells at S phase at 20 uM incubated for 24 hrs by PI staining based flow cytometric analysis (reference value: 40.15%); format: functional
[21] = tested on: MDA-MB-231; test: Induction of autophagy in human MDA-MB-231 cells assessed as fold increase in Lamp1 level at 15 uM measured after 6 hrs by Western blot analysis relative to control; format: functional
[22] = tested on: MDA-MB-231; test: Induction of cell cycle arrest in human MDA-MB-231 cells assessed as accumulation of cells at S phase at 20 uM incubated for 24 hrs by PI staining based flow cytometric analysis (reference value: 29.80%); format: functional
[23] = tested on: MDA-MB-231; test: Induction of cell cycle arrest in human MDA-MB-231 cells assessed as accumulation of cells at G2/M phase at 10 uM incubated for 24 hrs by PI staining based flow cytometric analysis (reference value: 7.47%); format: functional
[24] = tested on: MDA-MB-231; test: Induction of autophagy in human MDA-MB-231 cells assessed as fold increase in Lamp1 level at 5 uM measured after 6 hrs by Western blot analysis relative to control; format: functional
[25] = tested on: MDA-MB-231; test: Induction of autophagy in human MDA-MB-231 cells assessed as fold increase in LC3I/II protein level at 15 uM measured after 6 hrs by Western blot analysis relative to control; format: functional
[26] = tested on: MDA-MB-231; test: Induction of autophagy in human MDA-MB-231 cells assessed as increase in lysosomal membrane permeabilization by measuring red fluorescence in cytoplasm at 10 to 20 uM measured after 24 hrs by acridine orange (AO) staining assay; format: functional, cell-based; conditions: dose 10-20 µM
[27] = tested on: SGC-7901; test: Induction of cell cycle arrest in human SGC-7901 cells assessed as accumulation of cells at S phase at 5 uM incubated for 24 hrs by PI staining based flow cytometric analysis (reference value: 40.15%); format: functional
[28] = tested on: MDA-MB-231; test: Induction of cell cycle arrest in human MDA-MB-231 cells assessed as accumulation of cells at S phase at 5 uM incubated for 24 hrs by PI staining based flow cytometric analysis (reference value: 29.80%); format: functional
[29] = tested on: SGC-7901; test: Induction of cell cycle arrest in human SGC-7901 cells assessed as accumulation of cells at G0/G1 phase at 50 uM incubated for 24 hrs by PI staining based flow cytometric analysis (reference value: 59.67%); format: functional
[30] = tested on: SGC-7901; test: Induction of cell cycle arrest in human SGC-7901 cells assessed as accumulation of cells at G0/G1 phase at 10 uM incubated for 24 hrs by PI staining based flow cytometric analysis (reference value: 59.67%); format: functional
[31] = tested on: SGC-7901; test: Induction of cell cycle arrest in human SGC-7901 cells assessed as accumulation of cells at G0/G1 phase at 5 uM incubated for 24 hrs by PI staining based flow cytometric analysis (reference value: 59.67%); format: functional
[32] = Reduction in CDK1 level in human MDA-MB-231 cells assessed as fold change in presence of 3-MA at 15 uM measured after 72 hrs by Western blot analysis relative to control; format: functional
[33] = tested on: MDA-MB-231; test: Induction of cell cycle arrest in human MDA-MB-231 cells assessed as accumulation of cells at G0/G1 phase at 5 uM incubated for 24 hrs by PI staining based flow cytometric analysis (reference value: 62.73%); format: functional
[34] = Reduction in CDK1 level in human MDA-MB-231 cells assessed as fold change at 10 uM measured after 72 hrs by Western blot analysis relative to control; format: functional
[35] = Reduction in CDK1 level in human MDA-MB-231 cells assessed as fold change at 15 uM measured after 72 hrs by Western blot analysis relative to control; format: functional
[36] = Drug uptake in human MDA-MB-231 cells assessed as accumulation by measuring lysosome-specific fluorescent signals at 2 uM incubated for 1 hrs by confocal laser-scanning microscopic analysis; format: ADME, cell-based; conditions: mda-mb-231, 1 h
[37] = tested on: MDA-MB-231; test: Induction of autophagy in human MDA-MB-231 cells assessed as fold increase in LC3I/II protein level at 10 uM measured after 6 hrs by Western blot analysis relative to control; format: functional
[38] = tested on: SGC-7901; test: Induction of cell cycle arrest in human SGC-7901 cells assessed as accumulation of cells at G2/M phase at 20 uM incubated for 24 hrs by PI staining based flow cytometric analysis (reference value: 0.18%); format: functional
[39] = tested on: SGC-7901; test: Induction of cell cycle arrest in human SGC-7901 cells assessed as accumulation of cells at G2/M phase at 50 uM incubated for 24 hrs by PI staining based flow cytometric analysis (reference value: 0.18%); format: functional
[40] = tested on: SGC-7901; test: Induction of cell cycle arrest in human SGC-7901 cells assessed as accumulation of cells at G2/M phase at 5 uM incubated for 24 hrs by PI staining based flow cytometric analysis (reference value: 0.18%); format: functional
[41] = Reduction in Cyclin B1 level in human MDA-MB-231 cells assessed as fold change at 10 uM measured after 72 hrs by Western blot analysis relative to control; format: functional
[42] = tested on: HepG2; test: Cytotoxicity against human HepG2 cells assessed as cell inhibition measured after 72 hrs by MTT assay; format: functional, cell-based; conditions: HepG2, 72 h
[43] = tested on: MDA-MB-231; test: Induction of cell cycle arrest in human MDA-MB-231 cells assessed as accumulation of cells at S phase at 50 uM incubated for 24 hrs by PI staining based flow cytometric analysis (reference value: 29.80%); format: functional
[44] = tested on: MDA-MB-231; test: Induction of cell cycle arrest in human MDA-MB-231 cells assessed as accumulation of cells at G0/G1 phase at 50 uM incubated for 24 hrs by PI staining based flow cytometric analysis (reference value: 62.73%); format: functional
[45] = Drug uptake in human MDA-MB-231 cells assessed as accumulation by measuring fluorescent signals at 1 uM incubated for 1 hrs by confocal laser-scanning microscopic analysis; format: ADME, cell-based; conditions: mda-mb-231, 1 h
[46] = tested on: MDA-MB-231; test: Induction of cell cycle arrest in human MDA-MB-231 cells assessed as accumulation of cells at G2/M phase at 50 uM incubated for 24 hrs by PI staining based flow cytometric analysis (reference value: 7.47%); format: functional
[47] = Reduction in CDK1 level in human MDA-MB-231 cells assessed as fold change at 5 uM measured after 72 hrs by Western blot analysis relative to control; format: functional
[48] = tested on: MDA-MB-231; test: Induction of cell cycle arrest in human MDA-MB-231 cells assessed as accumulation of cells at S phase at 10 uM incubated for 24 hrs by PI staining based flow cytometric analysis (reference value: 29.80%); format: functional
[49] = Drug uptake in human MDA-MB-231 cells assessed as accumulation by measuring lysosome-specific fluorescent signals in presence of excess eudistomin Y1 at 1 uM incubated for 1 hrs by confocal laser-scanning microscopic analysis; format: ADME, cell-based; conditions: mda-mb-231, 1 h

COc1ccc(Cn2c3ccccc3c3ccnc(C(=O)c4ccccc4)c32)cc1
Activity [1]: 49.96% | fold change (FC) [2]: 1.21 | Activity [3]: 6.9% | IC50 [4]: 14.8 µM | Activity [5]: 45.27% | fold change (FC) [6]: 1.12 | Activity [7]: 48.37% | fold change (FC) [8]: 0.66 | IC50 [9]: 2.9 µM | Activity [10]: Active | IC50 [11]: 20.5 µM | IC50 [12]: 12.1 µM | fold change (FC) [13]: 0.8 | Activity [14]: 35.51% | Activity [15]: 29.13% | fold change (FC) [16]: 1.01 | Activity [17]: inactive | Activity [18]: 56.48% | Activity [19]: 14.71% | Activity [20]: 32.61% | fold change (FC) [21]: 1.39 | Activity [22]: 22.49% | Activity [23]: 18.53% | fold change (FC) [24]: 1.04 | fold change (FC) [25]: 1.51 | Activity [26]: Active | Activity [27]: 40.21% | Activity [28]: 21.05% | Activity [29]: 4.23% | Activity [30]: 8% | Activity [31]: 41.36% | fold change (FC) [32]: 0.78 | Activity [33]: 64.23% | fold change (FC) [34]: 0.52 | fold change (FC) [35]: 0.5 | Drug uptake [36]: Active | fold change (FC) [37]: 1.39 | Activity [38]: 60.49% | Activity [39]: 50.5% | Activity [40]: 18.43% | fold change (FC) [41]: 0.98 | IC50 [42]: 9.6 µM | Activity [43]: 11.55% | Activity [44]: 12.51% | Drug uptake [45]: Active | Activity [46]: 75.93% | fold change (FC) [47]: 0.78 | Activity [48]: 31.51% | Drug uptake [49]: Not Active

Cn1c2ccccc2c2ccnc(C(=O)c3ccc(OCc4ccccc4)cc3)c21
IC50 [4]: 34.2 µM | IC50 [9]: 33.6 µM | IC50 [11]: 19.8 µM | IC50 [12]: 40.2 µM | IC50 [42]: 62.4 µM

O=C(c1ccc(O)cc1)c1nccc2c1[nH]c1ccccc12 [EUDISTOMIN Y1]
IC50 [4]: 71.9 µM | IC50 [9]: 89.8 µM | IC50 [11]: 129 µM | IC50 [12]: 119 µM | IC50 [42]: 126 µM
